Key:
Assay in all cases: pEC50 of peptide local stability change
UniProt P24230 = conditions: peptide sequence: LVQGDVGSGK; direction: stabilized; replicate design: treated separately
Description: (§1)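 Dose-response HT-PELSA: desalted E. coli lysate treated separately per replicate with ATP (10 uM to 10 mM, 7 doses) for 30 min at 25 C, then a 4 min trypsin pulse at 22 C. Peptide ratio vs control was fitted with a 4-parameter log-logistic model (R2 > 0.9 in at least 3 replicates, CV of pEC50 <= 0.25); value is the mean pEC50 across replicates for stabilized or destabilized peptides.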

UniProt P05707 = conditions: peptide sequence: VGSKHNSGYSAAK; direction: stabilized; replicate design: treated separately
Description: as §1

UniProt P30015 = conditions: peptide sequence: TGDTPAQER; direction: stabilized; replicate design: treated separately
Description: as §1

UniProt P23874 = conditions: peptide sequence: ISVAGAQEK; direction: stabilized; replicate design: treated separately
Description: as §1

UniProt P27278 = conditions: peptide sequence: TVAILGGESSGK; direction: stabilized; replicate design: treated separately
Description: as §1

UniProt P0A6H5 = conditions: peptide sequence: LANAPFIK; direction: stabilized; replicate design: treated separately
Description: as §1

UniProt P04425 = conditions: peptide sequence: GTLIVNKPQSLR; direction: stabilized; replicate design: treated separately
Description: as §1

UniProt P36879 = conditions: peptide sequence: KTYPGGVQALR; direction: stabilized; replicate design: treated separately
Description: as §1

UniProt P27300 = conditions: peptide sequence: SVDAVIVNGGVPR; direction: stabilized; replicate design: treated separately
Description: as §1

UniProt P11454 = conditions: peptide sequence: ALPLPELK; direction: stabilized; replicate design: treated separately
Description: as §1

UniProt P39383 = conditions: peptide sequence: QLVDFADK; direction: stabilized; replicate design: treated separately
Description: as §1

UniProt P15038 = conditions: peptide sequence: AVVNGEHSLLVLAGAGSGK; direction: stabilized; replicate design: treated separately
Description: as §1

UniProt P76419 = conditions: peptide sequence: GGDCAPTREELLLAHK; direction: stabilized; replicate design: treated separately
Description: as §1

UniProt P00959 = conditions: peptide sequence: LKENGFIK; direction: stabilized; replicate design: treated separately
Description: as §1

UniProt P30176 = conditions: peptide sequence: AKFEQHAELR; direction: stabilized; replicate design: treated separately
Description: as §1

UniProt P00582 = conditions: peptide sequence: LYLPDIK; direction: stabilized; replicate design: treated separately
Description: as §1

MurD = MurD (UniProt P14900); conditions: peptide sequence: YLNGDNVR; direction: stabilized; replicate design: treated separately
Description: as §1

UniProt P21345 = conditions: peptide sequence: EVLGKFDK; direction: stabilized; replicate design: treated separately
Description: as §1

UniProt P37760 = conditions: peptide sequence: TGQVGWELQR; direction: stabilized; replicate design: treated separately
Description: as §1

UniProt P0AAB8 = conditions: peptide sequence: EQCDLLVCGHHHSFINR; direction: stabilized; replicate design: treated separately
Description: as §1

UniProt P21507 = conditions: peptide sequence: DVLGSAPTGTGK; direction: stabilized; replicate design: treated separately
Description: as §1

UniProt P75957 = conditions: peptide sequence: KKPAEINSR; direction: stabilized; replicate design: treated separately
Description: as §1

UniProt P24193 = conditions: peptide sequence: DAALIGEVVERK; direction: stabilized; replicate design: treated separately
Description: as §1

UniProt P76027 = conditions: peptide sequence: EILNLPEHELNKLR; direction: stabilized; replicate design: treated separately
Description: as §1

UniProt P76422 = conditions: peptide sequence: GGHLDDEQSPDWLFTR; direction: stabilized; replicate design: treated separately
Description: as §1

UniProt P23830 = conditions: peptide sequence: EALGVLHFK; direction: stabilized; replicate design: treated separately
Description: as §1

UniProt Q46802 = conditions: peptide sequence: GAFTGASANGK; direction: stabilized; replicate design: treated separately
Description: as §1

UniProt P75736 = conditions: peptide sequence: QQAAAIMR; direction: stabilized; replicate design: treated separately
Description: as §1

UniProt P77499 = conditions: peptide sequence: GKDLLALSPEDR; direction: stabilized; replicate design: treated separately
Description: as §1

UniProt P22188 = conditions: peptide sequence: LWCVFGCGGDRDK; direction: stabilized; replicate design: treated separately
Description: as §1

UniProt P27828 = conditions: peptide sequence: AHNPYGDGQACSR; direction: stabilized; replicate design: treated separately
Description: as §1

Sequence of UniProt P21345 (P21345 whole entry): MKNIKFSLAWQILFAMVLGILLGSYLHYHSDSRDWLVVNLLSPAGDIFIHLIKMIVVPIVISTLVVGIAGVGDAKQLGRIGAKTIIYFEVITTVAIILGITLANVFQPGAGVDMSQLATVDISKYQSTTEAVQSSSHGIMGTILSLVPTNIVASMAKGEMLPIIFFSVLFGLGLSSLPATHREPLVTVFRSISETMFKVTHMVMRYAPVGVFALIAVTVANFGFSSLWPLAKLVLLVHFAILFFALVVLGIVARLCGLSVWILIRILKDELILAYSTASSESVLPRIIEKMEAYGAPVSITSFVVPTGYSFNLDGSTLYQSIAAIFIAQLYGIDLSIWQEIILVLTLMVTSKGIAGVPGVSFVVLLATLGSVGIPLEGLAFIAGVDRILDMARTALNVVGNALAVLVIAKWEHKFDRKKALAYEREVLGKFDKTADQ
Sequence of UniProt Q46802 (Q46802 whole entry): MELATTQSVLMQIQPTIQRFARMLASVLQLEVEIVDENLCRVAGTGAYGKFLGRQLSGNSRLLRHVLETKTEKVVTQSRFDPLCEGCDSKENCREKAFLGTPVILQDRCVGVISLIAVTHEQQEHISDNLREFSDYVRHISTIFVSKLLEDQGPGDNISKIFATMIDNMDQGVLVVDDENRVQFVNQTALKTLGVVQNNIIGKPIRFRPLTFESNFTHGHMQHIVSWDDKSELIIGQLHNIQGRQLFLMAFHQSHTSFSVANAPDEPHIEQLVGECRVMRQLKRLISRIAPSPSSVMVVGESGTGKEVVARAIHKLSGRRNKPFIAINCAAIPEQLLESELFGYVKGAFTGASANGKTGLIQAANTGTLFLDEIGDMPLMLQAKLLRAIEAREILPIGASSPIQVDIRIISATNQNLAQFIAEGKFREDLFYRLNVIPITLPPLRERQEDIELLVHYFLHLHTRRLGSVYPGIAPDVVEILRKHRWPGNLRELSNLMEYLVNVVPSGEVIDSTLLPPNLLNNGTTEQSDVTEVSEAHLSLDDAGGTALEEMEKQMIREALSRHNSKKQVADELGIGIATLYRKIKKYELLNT
Sequence of UniProt P00582 (P00582 whole entry): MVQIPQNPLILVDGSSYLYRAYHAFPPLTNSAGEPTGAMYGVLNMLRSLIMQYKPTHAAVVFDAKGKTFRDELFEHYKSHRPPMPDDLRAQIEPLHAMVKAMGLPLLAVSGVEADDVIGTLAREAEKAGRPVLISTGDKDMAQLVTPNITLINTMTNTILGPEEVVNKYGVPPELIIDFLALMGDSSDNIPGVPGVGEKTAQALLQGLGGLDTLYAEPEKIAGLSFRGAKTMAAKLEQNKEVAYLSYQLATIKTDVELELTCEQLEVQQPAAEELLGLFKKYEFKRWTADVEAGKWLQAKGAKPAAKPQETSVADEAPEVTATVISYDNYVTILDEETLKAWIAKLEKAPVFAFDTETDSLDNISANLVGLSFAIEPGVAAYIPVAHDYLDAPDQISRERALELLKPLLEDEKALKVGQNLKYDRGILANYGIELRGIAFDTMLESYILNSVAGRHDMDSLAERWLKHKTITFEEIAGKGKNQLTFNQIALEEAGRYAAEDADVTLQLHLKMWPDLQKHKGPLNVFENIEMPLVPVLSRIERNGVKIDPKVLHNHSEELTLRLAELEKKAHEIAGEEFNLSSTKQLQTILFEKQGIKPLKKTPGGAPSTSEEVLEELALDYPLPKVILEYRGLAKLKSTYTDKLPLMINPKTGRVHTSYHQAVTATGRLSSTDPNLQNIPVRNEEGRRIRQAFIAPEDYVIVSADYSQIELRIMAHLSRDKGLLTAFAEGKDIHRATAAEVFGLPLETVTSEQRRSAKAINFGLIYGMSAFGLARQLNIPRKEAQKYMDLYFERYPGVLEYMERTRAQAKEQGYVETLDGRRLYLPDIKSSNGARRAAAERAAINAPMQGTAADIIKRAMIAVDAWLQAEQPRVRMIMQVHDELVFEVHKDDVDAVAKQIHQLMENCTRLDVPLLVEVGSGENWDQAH
Sequence of UniProt P36879 (P36879 whole entry): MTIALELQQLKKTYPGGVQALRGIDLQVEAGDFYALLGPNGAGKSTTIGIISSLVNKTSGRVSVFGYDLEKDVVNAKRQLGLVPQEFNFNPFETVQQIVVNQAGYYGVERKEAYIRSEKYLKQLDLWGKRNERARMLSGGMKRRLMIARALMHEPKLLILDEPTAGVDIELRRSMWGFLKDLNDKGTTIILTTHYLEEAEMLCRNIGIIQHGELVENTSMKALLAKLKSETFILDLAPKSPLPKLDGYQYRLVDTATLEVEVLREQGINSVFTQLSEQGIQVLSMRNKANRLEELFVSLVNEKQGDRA
Sequence of UniProt P76422 (P76422 whole entry): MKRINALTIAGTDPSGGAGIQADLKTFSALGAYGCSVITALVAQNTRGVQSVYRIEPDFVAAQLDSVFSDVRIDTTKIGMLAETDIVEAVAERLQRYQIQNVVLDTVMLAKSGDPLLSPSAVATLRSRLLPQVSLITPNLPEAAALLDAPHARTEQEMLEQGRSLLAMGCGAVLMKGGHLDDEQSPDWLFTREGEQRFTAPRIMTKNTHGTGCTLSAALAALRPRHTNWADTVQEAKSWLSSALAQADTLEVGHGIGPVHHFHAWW
Sequence of UniProt P77499 (P77499 whole entry): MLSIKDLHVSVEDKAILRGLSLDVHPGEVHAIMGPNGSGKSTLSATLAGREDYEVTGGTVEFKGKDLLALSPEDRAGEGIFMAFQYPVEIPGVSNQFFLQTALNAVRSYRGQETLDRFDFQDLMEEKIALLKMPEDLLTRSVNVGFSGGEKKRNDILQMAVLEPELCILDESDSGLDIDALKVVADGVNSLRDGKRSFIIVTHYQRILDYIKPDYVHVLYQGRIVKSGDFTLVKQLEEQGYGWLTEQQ
Sequence of UniProt P22188 (P22188 whole entry): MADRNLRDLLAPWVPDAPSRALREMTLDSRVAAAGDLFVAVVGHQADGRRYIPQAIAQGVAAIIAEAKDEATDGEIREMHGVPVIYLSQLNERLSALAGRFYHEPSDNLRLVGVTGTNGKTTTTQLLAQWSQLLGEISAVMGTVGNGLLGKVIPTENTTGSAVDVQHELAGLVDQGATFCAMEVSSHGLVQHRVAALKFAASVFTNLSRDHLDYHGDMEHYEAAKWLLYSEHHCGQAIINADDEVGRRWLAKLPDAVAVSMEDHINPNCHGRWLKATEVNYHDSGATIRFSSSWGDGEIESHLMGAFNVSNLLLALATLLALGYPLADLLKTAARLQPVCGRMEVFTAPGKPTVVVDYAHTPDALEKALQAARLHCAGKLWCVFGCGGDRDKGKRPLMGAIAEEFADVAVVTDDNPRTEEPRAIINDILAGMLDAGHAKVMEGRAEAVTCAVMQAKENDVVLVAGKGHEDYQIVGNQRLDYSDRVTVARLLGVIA
Sequence of UniProt P27278 (P27278 whole entry): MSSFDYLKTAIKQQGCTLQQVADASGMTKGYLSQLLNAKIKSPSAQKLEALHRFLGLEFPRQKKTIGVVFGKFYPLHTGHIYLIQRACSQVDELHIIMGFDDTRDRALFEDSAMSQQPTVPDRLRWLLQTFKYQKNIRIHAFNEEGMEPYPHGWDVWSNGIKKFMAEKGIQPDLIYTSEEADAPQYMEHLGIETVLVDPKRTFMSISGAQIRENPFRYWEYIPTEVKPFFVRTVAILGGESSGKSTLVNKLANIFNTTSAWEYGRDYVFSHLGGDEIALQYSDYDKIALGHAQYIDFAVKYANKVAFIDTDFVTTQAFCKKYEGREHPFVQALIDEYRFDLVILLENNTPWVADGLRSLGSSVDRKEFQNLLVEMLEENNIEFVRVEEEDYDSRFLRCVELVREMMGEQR
Sequence of UniProt P24230 (P24230 whole entry): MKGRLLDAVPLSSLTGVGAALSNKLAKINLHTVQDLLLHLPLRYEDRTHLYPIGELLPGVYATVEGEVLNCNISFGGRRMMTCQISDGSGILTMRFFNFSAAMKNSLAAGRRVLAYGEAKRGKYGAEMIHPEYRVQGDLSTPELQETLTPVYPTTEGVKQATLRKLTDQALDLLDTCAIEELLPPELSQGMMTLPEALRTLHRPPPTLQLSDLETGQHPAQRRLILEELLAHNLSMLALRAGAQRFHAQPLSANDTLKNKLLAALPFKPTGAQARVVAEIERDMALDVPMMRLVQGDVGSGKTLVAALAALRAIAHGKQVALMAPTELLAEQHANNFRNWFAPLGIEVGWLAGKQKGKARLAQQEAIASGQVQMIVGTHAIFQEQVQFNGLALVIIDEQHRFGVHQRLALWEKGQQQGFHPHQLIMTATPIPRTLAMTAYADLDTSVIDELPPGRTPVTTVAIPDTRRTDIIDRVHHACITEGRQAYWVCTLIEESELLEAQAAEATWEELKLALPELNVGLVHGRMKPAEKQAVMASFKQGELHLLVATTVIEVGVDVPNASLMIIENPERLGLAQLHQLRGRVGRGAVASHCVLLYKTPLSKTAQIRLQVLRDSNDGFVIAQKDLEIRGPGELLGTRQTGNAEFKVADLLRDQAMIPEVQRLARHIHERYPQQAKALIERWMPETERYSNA
Sequence of UniProt P0AAB8 (P0AAB8 whole entry): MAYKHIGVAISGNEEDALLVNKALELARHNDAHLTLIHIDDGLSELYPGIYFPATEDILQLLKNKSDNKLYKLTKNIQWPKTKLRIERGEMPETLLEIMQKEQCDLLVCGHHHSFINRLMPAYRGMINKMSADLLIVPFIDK
Sequence of UniProt P23874 (P23874 whole entry): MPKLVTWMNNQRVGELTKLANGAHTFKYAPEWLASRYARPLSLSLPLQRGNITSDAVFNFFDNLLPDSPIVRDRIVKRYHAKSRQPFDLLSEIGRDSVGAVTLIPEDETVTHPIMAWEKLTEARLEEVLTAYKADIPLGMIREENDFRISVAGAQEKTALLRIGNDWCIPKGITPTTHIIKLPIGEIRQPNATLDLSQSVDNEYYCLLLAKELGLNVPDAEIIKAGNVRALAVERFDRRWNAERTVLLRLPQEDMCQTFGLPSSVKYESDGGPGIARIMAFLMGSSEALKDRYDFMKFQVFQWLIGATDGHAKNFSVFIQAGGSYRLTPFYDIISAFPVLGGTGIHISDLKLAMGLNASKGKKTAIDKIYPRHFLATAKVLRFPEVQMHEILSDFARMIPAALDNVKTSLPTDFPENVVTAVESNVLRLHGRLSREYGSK

SMILES: Nc1ncnc2c1ncn2[C@@H]1O[C@H](COP(=O)(O)OP(=O)(O)OP(=O)(O)O)[C@@H](O)[C@H]1O [adenosine 5'-triphosphate]
- pEC50 of peptide local stability change (UniProt P24230): 2.78
- pEC50 of peptide local stability change (UniProt P05707): 3.86
- pEC50 of peptide local stability change (UniProt P30015): 3.43
- pEC50 of peptide local stability change (UniProt P23874): 3.78
- pEC50 of peptide local stability change (UniProt P27278): 3.44
- pEC50 of peptide local stability change (UniProt P0A6H5): 3.26
- pEC50 of peptide local stability change (UniProt P04425): 3.85
- pEC50 of peptide local stability change (UniProt P36879): 3.73
- pEC50 of peptide local stability change (UniProt P27300): 3.18
- pEC50 of peptide local stability change (UniProt P11454): 3.15
- pEC50 of peptide local stability change (UniProt P39383): 3.31
- pEC50 of peptide local stability change (UniProt P15038): 3.67
- pEC50 of peptide local stability change (UniProt P76419): 3.74
- pEC50 of peptide local stability change (UniProt P00959): 2.99
- pEC50 of peptide local stability change (UniProt P30176): 2.71
- pEC50 of peptide local stability change (UniProt P00582): 3.5
- pEC50 of peptide local stability change (MurD): 3.82
- pEC50 of peptide local stability change (UniProt P21345): 2.25
- pEC50 of peptide local stability change (UniProt P37760): 3.12
- pEC50 of peptide local stability change (UniProt P0AAB8): 3.82
- pEC50 of peptide local stability change (UniProt P21507): 4.35
- pEC50 of peptide local stability change (UniProt P75957): 3.56
- pEC50 of peptide local stability change (UniProt P24193): 4.4
- pEC50 of peptide local stability change (UniProt P76027): 2.71
- pEC50 of peptide local stability change (UniProt P76422): 3.76
- pEC50 of peptide local stability change (UniProt P23830): 2.53
- pEC50 of peptide local stability change (UniProt Q46802): 3.29
- pEC50 of peptide local stability change (UniProt P75736): 2.02
- pEC50 of peptide local stability change (UniProt P77499): 3.9
- pEC50 of peptide local stability change (UniProt P22188): 3.89
- pEC50 of peptide local stability change (UniProt P27828): 2.12
